US20120245107A1, “METHODS OF REDUCING THE PROLIFERATION AND VIABLILITY OF MICROBIAL AGENTS” (Targeted Delivery Technologies Limited, priority 2009, published 2012)
Values after ≈ are worked out from the molar mass of the structure shown. Read-outs that look alike come from different tables or passages of the source. Values belong to the compound of their own block, whether it stands above or below them.

Experiments:
Type in all cases: cell-based
Candida albicans = test: Minimum inhibitory concentration (MIC100), CLSI M38-A2 broth dilution
Experimental: Several strains of Aspergillus flavus, Aspergillus fumigatus, and Candida albicans were tested. Trichophyton rubrum MYA4498 and T. mentagrophytes MYA4439, the QC isolates approved by the Clinical and Laboratory Standards Institute (CLSI) for dermatophyte susceptibility testing, can also be tested.
(§1) MIC testing was performed according to the CLSI M38A2 standard for the susceptibility testing of dermatophytes developed at the Center for Medical Mycology (See, Ghannoum et al., 2004, J Clin Microbial. 42(7): 2977-2979 CLSI, Reference Method for Broth Dilution Antifungal Susceptibility Testing of Filamentous Fungi: Approved Standard-Second Edition. CLSI document M38-A2 [ISBN 1-56238-668-9]. CLSI, 940 West Valley Road, Suite 1400, Wayne, Pa. 19087-1898 USA, 2008). Briefly, RPMI was the test medium, incubation temperature and time was 35° C. and 24 hours or 48 hours, respectively, and the inoculum size was 1-3×10^3 conidia/ml. The MIC endpoint was 100% inhibition as compared to the growth control.
The MIC range, MIC100 (defined as the minimum concentration required to inhibit 100% of the isolates tested), for the antifungal preparations of the invention and comparators was computed. The MFC range, MFC50, MFC90, and MFC100 for the antifungal preparations of the invention and comparators can also be computed.
Similarly, the lowest concentration (μg/mL) of a fluconazole formulation of the invention was compared to flucanozole alone that is required to inhibit 100% growth of various isolates of Candida albicans (MIC100) was determined (see Table 14). In this example, the fluconazole formulation of the invention comprises fluconazole formulated with a phosopholipid and a surfactant.

Aspergillus flavus = test: MIC100 of voriconazole and terbinafine formulation individually and in combination, FICI; conditions: for MIC100, Combination: concentration of the agent when voriconazole and terbinafine formulation are used in combination; for MIC: Aspergillus flavus, agent used individually, read-out: MIC100, Individual
Experimental: as §1
(§2) The lowest concentration (μg/mL) of either a terbinafine formulation of the invention or voriconazole, when used in combination, that is required to inhibit 100% of various isolates of Aspergillus flavus and Aspergillus fumigatus (MIC100) was determined (see Table 15). In this example, the terbinafine formulation of the invention comprises terbinafine formulated with a phospholipid and a surfactant.
(§3) Depicted in Table 15, the Fractional Inhibitory […] Index (FWD measures the degree of interaction between the two antifungal agents. A FICI value of greater than 4 indicates an antagonistic interaction; a FICI value of between 0.5 and 4 indicates no interaction; and a FICI value of less than 0.5 indicates a synergistic interaction. As depicted in Table 15, a lower concentration of either voriconazole or terbinafine formulation is generally able to inhibit 100% growth of various isolates of Aspergillus fumigatus and Aspergillus flavus when both antifungal agents are used in combination than the concentration required to inhibit 100% growth of various isolates of Aspergillus fumigatus and Aspergillus flavus when either voriconazole or terbinafine formulation is used individually.

Aspergillus fumigatus = test: as above; conditions: for MIC100, Combination: concentration of the agent when voriconazole and terbinafine formulation are used in combination; for MIC: Aspergillus fumigatus, agent used individually, read-out: MIC100, Individual
Experimental: as §1, §2, §3

[1] = A. fumigatus strain MRL No. 2456
[2] = A. fumigatus strain MRL No. 2471
[3] = A. fumigatus strain MRL No. 2574
[4] = A. fumigatus strain MRL No. 16627
[5] = A. fumigatus strain MRL No. 16629

MIC (Candida albicans; C. albicans strain MRL No. 648): > 64 µg/mL
MIC (Candida albicans; C. albicans strain MRL No. 9650): > 128 µg/mL
MIC (Candida albicans; C. albicans strain MRL No. 9698): 32 µg/mL (≈ 104 µM)
MIC (Candida albicans; C. albicans strain MRL No. 14461): 0.25 µg/mL (≈ 0.816 µM)
MIC (Candida albicans; C. albicans strain MRL No. 14465): 0.25 µg/mL (≈ 0.816 µM)
SMILES: OC(Cn1cncn1)(Cn1cncn1)c1ccc(F)cc1F [Flucanozole, fluconazole]

MIC100, Combination (Aspergillus flavus; A. flavus strain MRL No. 17842): 0.12 µg/mL
MIC100, Combination (Aspergillus flavus; A. flavus strain MRL No. 18736): 0.12 µg/mL
MIC100, Combination (Aspergillus flavus; A. flavus strain MRL No. 18743): 0.12 µg/mL
MIC100, Combination (Aspergillus flavus; A. flavus strain MRL No. 18744): 0.03 µg/mL
MIC (Aspergillus flavus; A. flavus strain MRL No. 17842): 0.25 µg/mL
MIC (Aspergillus flavus; A. flavus strain MRL No. 18736): 0.5 µg/mL
MIC (Aspergillus flavus; A. flavus strain MRL No. 18743): 0.5 µg/mL
MIC (Aspergillus flavus; A. flavus strain MRL No. 18744): 0.8 µg/mL
MIC100, Combination (Aspergillus fumigatus; [1]): 0.06 µg/mL
MIC100, Combination (Aspergillus fumigatus; [2]): 0.06 µg/mL
MIC100, Combination (Aspergillus fumigatus; [3]): 0.06 µg/mL
MIC100, Combination (Aspergillus fumigatus; [4]): 0.03 µg/mL
MIC100, Combination (Aspergillus fumigatus; [5]): 0.03 µg/mL
MIC (Aspergillus fumigatus; [1]): 0.12 µg/mL
MIC (Aspergillus fumigatus; [2]): 0.25 µg/mL
MIC (Aspergillus fumigatus; [3]): 0.25 µg/mL
MIC (Aspergillus fumigatus; [4]): 0.5 µg/mL
MIC (Aspergillus fumigatus; [5]): 0.12 µg/mL
SMILES: C[C@@H](c1ncncc1F)[C@](O)(Cn1cncn1)c1ccc(F)cc1F [Voriconazole, voriconazole]
